Experimental data from US20240158392A1 (Janssen Biotech, Inc., priority 2021, published 2024).

target: SIK2 (Homo sapiens, UniProt Q9H0K1); experiment: SIK2 Enzymatic Assay High Version 2 (High ATP); format: biochemical; conditions: not given
How it was run: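 At room temperature, enzyme (6 nM, 2× final) was preincubated with compound for 30 min, then 6 mM ATP and 400 μM HDAC5tide (both 2× final) were added for 2 h. ADP formed was measured by ADP-Glo Max (2 h reagent, 1 h detection) using luminescence.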

SIK2, sequence (Q9H0K1 whole entry, species assumed): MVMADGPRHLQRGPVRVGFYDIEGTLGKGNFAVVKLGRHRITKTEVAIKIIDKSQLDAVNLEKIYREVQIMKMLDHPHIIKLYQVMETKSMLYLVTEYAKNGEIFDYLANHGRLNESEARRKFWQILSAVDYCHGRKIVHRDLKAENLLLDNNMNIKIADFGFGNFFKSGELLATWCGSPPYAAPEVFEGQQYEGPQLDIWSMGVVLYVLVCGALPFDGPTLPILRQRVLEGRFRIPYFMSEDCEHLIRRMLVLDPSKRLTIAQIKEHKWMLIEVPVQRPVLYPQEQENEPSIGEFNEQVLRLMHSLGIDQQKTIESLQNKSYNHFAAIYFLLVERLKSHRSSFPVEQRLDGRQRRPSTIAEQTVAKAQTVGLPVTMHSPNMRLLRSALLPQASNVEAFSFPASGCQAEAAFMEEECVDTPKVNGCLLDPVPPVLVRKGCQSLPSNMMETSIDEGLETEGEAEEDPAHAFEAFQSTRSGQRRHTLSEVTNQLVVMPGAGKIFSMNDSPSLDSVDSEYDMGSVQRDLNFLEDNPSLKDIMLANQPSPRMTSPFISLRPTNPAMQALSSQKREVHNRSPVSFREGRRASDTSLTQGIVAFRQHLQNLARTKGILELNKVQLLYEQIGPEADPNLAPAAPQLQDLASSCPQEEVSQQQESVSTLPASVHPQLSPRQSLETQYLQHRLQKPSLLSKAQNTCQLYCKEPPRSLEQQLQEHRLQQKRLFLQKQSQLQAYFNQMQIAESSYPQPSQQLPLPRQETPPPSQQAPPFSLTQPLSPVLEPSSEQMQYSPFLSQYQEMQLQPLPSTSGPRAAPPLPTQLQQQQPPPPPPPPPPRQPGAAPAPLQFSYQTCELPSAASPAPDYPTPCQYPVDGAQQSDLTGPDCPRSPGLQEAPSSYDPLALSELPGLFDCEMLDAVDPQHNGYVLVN

| Structure (SMILES) | IC50 [µM] |
| --- | --- |
| CNC(=O)c1ccnc(Nc2cc3cc(-c4cc(C)ncc4O[C@H]4C[C@H]5COC[C@@H](C4)N5C(C)=O)ccn3n2)c1 [Example 631, 2-((5-(5-(((1R,5S,7s)-9-acetyl-3-oxa-9-azabicyclo[3.3.1]nonan-7-yl)oxy)-2-methylpyridin-4-yl)pyrazolo[1,5-a]pyridin-2-yl)amino)-N-methylisonicotinamide] | 0.0771 |
| CC(=O)N1[C@@H]2COC[C@H]1C[C@@H](Oc1cnc(C)cc1-c1ccn3nc(Nc4cc(C(F)(F)F)ccn4)cc3c1)C2 [Example 632, 1-((1R,5S,7s)-7-((6-methyl-4-(2-((4-(trifluoromethyl)pyridin-2-yl)amino)pyrazolo[1,5-a]pyridin-5-yl)pyridin-3-yl)oxy)-3-oxa-9-azabicyclo[3.3.1]nonan-9-yl)ethan-1-one] | 0.00121 |
| CNC(=O)c1ccnc(Nc2cc3cc(-c4cc(C)ncc4O[C@H]4C[C@H]5COC[C@@H](C4)N5C(=O)C4CC4)ccn3n2)c1 [Example 634, 2-((5-(5-(((1R,5S,7s)-9-(cyclopropanecarbonyl)-3-oxa-9-azabicyclo[3.3.1]nonan-7-yl)oxy)-2-methylpyridin-4-yl)pyrazolo[1,5-a]pyridin-2-yl)amino)-N-methylisonicotinamide] | 0.363 |
| CNC(=O)c1ccnc(Nc2cc3cc(-c4cc(C)ncc4O[C@H]4C[C@H]5COC[C@@H](C4)N5S(=O)(=O)C4CC4)ccn3n2)c1 [Example 635, 2-((5-(5-(((1R,5S,7s)-9-(cyclopropylsulfonyl)-3-oxa-9-azabicyclo[3.3.1]nonan-7-yl)oxy)-2-methylpyridin-4-yl)pyrazolo[1,5-a]pyridin-2-yl)amino)-N-methylisonicotinamide] | 0.00197 |
| CC(=O)N1[C@@H]2COC[C@H]1C[C@@H](Oc1cnc(C)cc1-c1ccn3nc(Nc4ccc(=O)n(C)n4)cc3c1)C2 [Example 637, 6-((5-(5-(((1R,5S,7s)-9-acetyl-3-oxa-9-azabicyclo[3.3.1]nonan-7-yl)oxy)-2-methylpyridin-4-yl)pyrazolo[1,5-a]pyridin-2-yl)amino)-2-methylpyridazin-3(2H)-one] | 0.00642 |

same assay, conditions: enzyme 6 nM, 6 mM ATP and 400 μM HDAC5tide (each 2× final concentration); 30 minutes pre-incubation, 2 hours; ADP-Glo Max luminescence; read-out: SIK2 high ATP IC50 (μM) (Test Example 2)

| Structure (SMILES) | IC50 [µM] |
| --- | --- |
| Cc1ncc(Nc2cc3cc(-c4cc(OC(F)F)ncc4OCC(C)(C)C#N)ccn3n2)cn1 [Example 641, 3-[[6-(difluoromethoxy)-4-[2-[(2-methylpyrimidin-5-yl)amino]pyrazolo[1,5-a]pyridin-5-yl]-3-pyridyl]oxy]-2,2-dimethyl-propanenitrile] | 0.111 |
| COc1cc(Nc2cc3cc(-c4cc(C)ncc4O[C@H]4CC[C@H](O)CC4)ccn3n2)cc(OC)c1 [Example 645, (1r,4r)-4-((4-(2-((3,5-dimethoxyphenyl)amino)pyrazolo[1,5-a]pyridin-5-yl)-6-methylpyridin-3-yl)oxy)cyclohexan-1-ol] | 0.325 |
| COc1cc(Nc2cc3cc(-c4cc(C)ncc4O[C@H]4CC[C@H](O)CC4)ccn3n2)cc(F)c1C(=O)NC1CC1 [Example 649] | 0.166 |
| Cc1cc(-c2cn3cc(NC(=O)C4CC4)nc3cn2)c(O[C@H]2CC[C@H](O)CC2)cn1 [Example 653, N-[6-[5-(4-hydroxycyclohexoxy)-2-methyl-4-pyridyl]imidazo[1,2-a]pyrazin-2-yl]cyclopropanecarboxamide] | 0.136 |
| Cc1cc(-c2cn3cc(NC(=O)C4CC4)nc3cn2)c(OC2CN(C)C2)cn1 [Example 654, N-[6-[2-methyl-5-(1-methylazetidin-3-yl)oxy-4-pyridyl]imidazo[1,2-a]pyrazin-2-yl]cyclopropanecarboxamide] | 0.0743 |
| Cc1cc(-c2cn3cc(NC(=O)C4CC4)nc3cn2)c(O[C@H]2CC[C@@H](O)CC2)cn1 [Example 655, N-[6-[5-(4-hydroxycyclohexoxy)-2-methyl-4-pyridyl]imidazo[1,2-a]pyrazin-2-yl]cyclopropanecarboxamide] | 0.0943 |
| Cc1cc(-c2cn3cc(Nc4cncc(C)n4)nc3cn2)c(O[C@H]2CC[C@H](O)CC2)cn1 [Example 657, 4-[[6-methyl-4-[2-[(6-methylpyrazin-2-yl)amino]imidazo[1,2-a]pyrazin-6-yl]-3-pyridyl]oxy]cyclohexanol] | 0.984 |
| Cc1cc(Nc2cc3cc(-c4cc(OCC(F)(F)F)ncc4OCC(C)(C)C#N)ccn3n2)nc(C)n1 [Example 659, 3-[[4-[2-[(2,6-dimethylpyrimidin-4-yl)amino]pyrazolo[1,5-a]pyridin-5-yl]-6-(2,2,2-trifluoroethoxy)-3-pyridyl]oxy]-2,2-dimethyl-propanenitrile] | 0.157 |
| Cc1cc(Nc2cc3cc(-c4cc(OCC(F)F)ncc4OCC(C)(C)C#N)ccn3n2)nc(C)n1 [Example 660, 3-[[6-(2,2-difluoroethoxy)-4-[2-[(2,6-dimethylpyrimidin-4-yl)amino]pyrazolo[1,5-a]pyridin-5-yl]-3-pyridyl]oxy]-2,2-dimethyl-propanenitrile] | 0.184 |

More lines, now with the values ahead:

| IC50 [µM] | Structure (SMILES) |
| --- | --- |
| 0.105 | Cc1cc(-c2ccn3nc(Nc4cc(C(=O)N(C)C)cc(C)n4)cc3c2)c(OCC(C)(C)O)cn1 [Example 633, 2-[[5-[5-(2-hydroxy-2-methyl-propoxy)-2-methyl-4-pyridyl]pyrazolo[1,5-a]pyridin-2-yl]amino]-N,N,6-trimethyl-pyridine-4-carboxamide] |
| 0.0135 | Cc1cc(-c2ccn3nc(Nc4cc(C(=O)NC5CC5)cc(C)n4)cc3c2)c(OCC(C)(C)O)cn1 [Example 636, N-cyclopropyl-2-[[5-[5-(2-hydroxy-2-methyl-propoxy)-2-methyl-4-pyridyl]pyrazolo[1,5-a]pyridin-2-yl]amino]-6-methyl-pyridine-4-carboxamide] |
| 0.149 | Cc1cc(Nc2cc3cc(-c4cc(C)ncc4OCC(C)(C)O)ccn3n2)nc(C(=O)NC2CC2)c1 [Example 638, N-cyclopropyl-6-[[5-[5-(2-hydroxy-2-methyl-propoxy)-2-methyl-4-pyridyl]pyrazolo[1,5-a]pyridin-2-yl]amino]-4-methyl-pyridine-2-carboxamide] |
| 0.0887 | Cc1cc(-c2ccn3nc(Nc4ccc(C(=O)NC5CC5)cn4)cc3c2)c(OCC(C)(C)O)cn1 [Example 639, N-cyclopropyl-6-[[5-[5-(2-hydroxy-2-methyl-propoxy)-2-methyl-4-pyridyl]pyrazolo[1,5-a]pyridin-2-yl]amino]pyridine-3-carboxamide] |
| 0.0295 | Cc1cc(-c2ccn3nc(Nc4cc(C)nc(C(=O)NC5CC5)n4)cc3c2)c(OCC(C)(C)O)cn1 [Example 640, N-cyclopropyl-4-[[5-[5-(2-hydroxy-2-methyl-propoxy)-2-methyl-4-pyridyl]pyrazolo[1,5-a]pyridin-2-yl]amino]-6-methyl-pyrimidine-2-carboxamide] |
| 0.00171 | COC(=O)c1ccc(Nc2cc3cc(-c4cc(C)ncc4OCC(C)(C)O)ccn3n2)cc1OC [Example 642, methyl 4-[[5-[5-(2-hydroxy-2-methyl-propoxy)-2-methyl-4-pyridyl]pyrazolo[1,5-a]pyridin-2-yl]amino]-2-methoxy-benzoate] |
| 0.157 | COc1cc(Nc2cc3cc(-c4cc(C)ncc4OCC(C)(C)O)ccn3n2)ccc1C(=O)NC1CC1 [Example 643, N-cyclopropyl-4-[[5-[5-(2-hydroxy-2-methyl-propoxy)-2-methyl-4-pyridyl]pyrazolo[1,5-a]pyridin-2-yl]amino]-2-methoxy-benzamide] |
| 0.0734 | Cc1cc(-c2ccn3nc(Nc4cc(C)nc(C(=O)NCC(F)(F)F)n4)cc3c2)c(OCC(C)(C)O)cn1 [Example 644, 4-[[5-[5-(2-hydroxy-2-methyl-propoxy)-2-methyl-4-pyridyl]pyrazolo[1,5-a]pyridin-2-yl]amino]-6-methyl-N-(2,2,2-trifluoroethyl)pyrimidine-2-carboxamide] |
| 0.0313 | COc1cc(Nc2cc3cc(-c4cc(C)ncc4OCC(C)(C)O)ccn3n2)cc(OC)c1 [Example 646, 1-[[4-[2-(3,5-dimethoxyanilino)pyrazolo[1,5-a]pyridin-5-yl]-6-methyl-3-pyridyl]oxy]-2-methyl-propan-2-ol] |
| 0.117 | Cc1cc(-c2ccn3nc(Nc4cc(C)nc(C(=O)NCC(C)(C)O)n4)cc3c2)c(OCC(C)(C)O)cn1 [Example 647, 4-[[5-[5-(2-hydroxy-2-methyl-propoxy)-2-methyl-4-pyridyl]pyrazolo[1,5-a]pyridin-2-yl]amino]-N-(2-hydroxy-2-methyl-propyl)-6-methyl-pyrimidine-2-carboxamide] |
| 0.0887 | COc1cc(Nc2cc3cc(-c4cc(C)ncc4OCC(C)(C)O)ccn3n2)cc(OC(F)F)c1C(=O)NC1CC1 [Example 648, N-cyclopropyl-2-(difluoromethoxy)-4-[[5-[5-(2-hydroxy-2-methyl-propoxy)-2-methyl-4-pyridyl]pyrazolo[1,5-a]pyridin-2-yl]amino]-6-methoxy-benzamide] |
| 0.0868 | Cc1cc(-c2ccn3nc(Nc4cc(C(F)(F)F)c(C(=O)NC(C)C)cn4)cc3c2)c(OCC(C)(C)O)cn1 [Example 650, 6-[[5-[5-(2-hydroxy-2-methyl-propoxy)-2-methyl-4-pyridyl]pyrazolo[1,5-a]pyridin-2-yl]amino]-N-isopropyl-4-(trifluoromethyl)pyridine-3-carboxamide] |
| 0.194 | Cc1cc(-c2ccn3nc(Nc4cc(C(F)(F)F)c(C(=O)NCC(F)(F)F)cn4)cc3c2)c(OCC(C)(C)O)cn1 [Example 651, 6-[[5-[5-(2-hydroxy-2-methyl-propoxy)-2-methyl-4-pyridyl]pyrazolo[1,5-a]pyridin-2-yl]amino]-N-(2,2,2-trifluoroethyl)-4-(trifluoromethyl)pyridine-3-carboxamide] |
| 0.557 | Cc1cc(-c2ccn3nc(Nc4nccc(C)c4F)cc3c2)c(OCC(C)(C)O)cn1 [Example 652, 1-[[4-[2-[(3-fluoro-4-methyl-2-pyridyl)amino]pyrazolo[1,5-a]pyridin-5-yl]-6-methyl-3-pyridyl]oxy]-2-methyl-propan-2-ol] |
| 0.0749 | Cc1cc(Nc2cc3cc(-c4cc(OCC(F)(F)F)ncc4OCC(C)(C)O)ccn3n2)nc(C)n1 [Example 661, 1-[[4-[2-[(2,6-dimethylpyrimidin-4-yl)amino]pyrazolo[1,5-a]pyridin-5-yl]-6-(2,2,2-trifluoroethoxy)-3-pyridyl]oxy]-2-methyl-propan-2-ol] |
